Test results: patent publication US8518944B2, “Compounds as casein kinase inhibitors” (Pfizer Inc., priority 2009, dated 2013)
Counter-ions that a name gives are not always drawn.

How the values were obtained:
CK1δ = CK1δ (Homo sapiens, UniProt P48730); assay: CK1δ kinase assay (Kinase-Glo luminescence); format: biochemical; conditions: ATP 10 μM, CK1δ enzyme 2 nM, peptide substrate 42 μM, 25° C., 85 minutes; values marked * are geometric mean of 5-16 determinations; read-out: CKIδ IC50 (nM), geometric mean of 2-4 determinations
Protocol: The CK1δ kinase assay was performed in a standard buffer containing ATP at 10 μM, CK1δ enzyme at 2 nM, and the peptide substrate PLSRTLpSVASLPGL at 42 μM. The reaction was incubated at 25° C. for 85 minutes. Enzyme inhibition was performed in the presence of either 1 μL of CK1δ inhibitor, or 4% DMSO. Detection of luminescent output on a PerkinElmer EnVision plate reader (PerkinElmer, Waltham, Mass.) was performed as described for the Kinase-Glo Assay (Promega).

CK1ε wild type enzyme = CK1ε wild type enzyme (Homo sapiens, UniProt P49674); assay: CK1ε kinase assay (Kinase-Glo luminescence); format: biochemical; conditions: ATP 10 μM, CK1ε wild type enzyme 2.5 nM, peptide substrate 42 μM, 25° C., 70 minutes; values marked * are geometric mean of 5-16 determinations; read-out: CKIε IC50 (nM), geometric mean of 2-4 determinations
Protocol: The CK1ε kinase assay was performed in a standard buffer containing ATP at 10 μM, CK1ε wild type enzyme at 2.5 nM, and 42 μM concentration of the peptide substrate PLSRTLpSVASLPGL (Flotow et al., 1990). The reaction was incubated at 25° C. for 70 minutes. Enzyme inhibition was measured in the presence of 1 μL of the CK1ε inhibitor, or 4% DMSO. Detection was carried out as described for the Kinase-Glo Assay (Promega). Luminescent output was measured on the PerkinElmer EnVision plate reader (PerkinElmer, Waltham, Mass.).

Sequence of CK1δ (P48730 whole entry): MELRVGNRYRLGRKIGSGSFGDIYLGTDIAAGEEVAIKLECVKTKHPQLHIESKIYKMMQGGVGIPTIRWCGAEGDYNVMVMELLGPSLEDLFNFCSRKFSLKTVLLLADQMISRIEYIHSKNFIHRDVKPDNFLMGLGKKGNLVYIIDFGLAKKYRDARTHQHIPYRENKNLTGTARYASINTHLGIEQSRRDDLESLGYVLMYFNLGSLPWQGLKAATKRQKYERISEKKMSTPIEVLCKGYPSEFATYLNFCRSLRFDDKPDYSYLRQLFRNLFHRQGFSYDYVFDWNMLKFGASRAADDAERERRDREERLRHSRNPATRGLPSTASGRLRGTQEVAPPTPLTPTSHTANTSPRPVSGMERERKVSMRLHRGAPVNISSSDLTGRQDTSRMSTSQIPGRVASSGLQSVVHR
Sequence of CK1ε wild type enzyme (P49674 whole entry): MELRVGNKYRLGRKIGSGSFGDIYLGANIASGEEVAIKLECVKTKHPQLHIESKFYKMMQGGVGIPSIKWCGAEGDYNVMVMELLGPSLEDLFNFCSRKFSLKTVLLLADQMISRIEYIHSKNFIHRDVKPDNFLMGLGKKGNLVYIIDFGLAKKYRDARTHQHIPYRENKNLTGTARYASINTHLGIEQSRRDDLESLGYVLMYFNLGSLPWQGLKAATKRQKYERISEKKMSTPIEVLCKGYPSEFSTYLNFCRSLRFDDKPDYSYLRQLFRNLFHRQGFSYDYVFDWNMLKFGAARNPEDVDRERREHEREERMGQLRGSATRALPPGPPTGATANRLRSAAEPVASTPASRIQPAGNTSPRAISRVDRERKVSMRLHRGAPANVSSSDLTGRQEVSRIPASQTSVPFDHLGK

Compound | IC50 (CK1δ) [nM] | IC50 (CK1ε wild type enzyme) [nM]
C[C@H](c1ccon1)N1CCC(n2cnc(-c3ccc(F)cc3)c2-c2ccncn2)CC1 (single isomer, unassigned) [Example 9] | 281 | 1360
C[C@@H](c1ccon1)N1CCC(n2cnc(-c3ccc(F)cc3)c2-c2ccncn2)CC1 (single isomer, unassigned) [Example 10] | 64.6 | 277
Nc1nccc(-c2c(-c3ccc(F)cc3)ncn2C2CN(Cc3ncccn3)C2)n1 [Example 1, 4-{4-(4-Fluorophenyl)-1-[1-(pyrimidin-2-ylmethyl)azetidin-3-yl]-1H-imidazol-5-yl}pyrimidin-2-amine] | 163 | 536
CNc1nccc(-c2c(-c3ccc(F)cc3)ncn2C2CCN(C(C)c3ccon3)CC2)n1 (stereo not shown) [Example 2, 4-{4-(4-Fluorophenyl)-1-[1-(1-isoxazol-3-ylethyl)piperidin-4-yl]-1H-imidazol-5-yl}-N-methylpyrimidin-2-amine] | 16.7 | 67.4
Nc1nccc(-c2c(-c3ccc(F)cc3)ncn2C2CCN(Cc3ncccn3)CC2)n1 [Example 3, 4-{4-(4-Fluorophenyl)-1-[1-(pyrimidin-2-ylmethyl)piperidin-4-yl]-1H-imidazol-5-yl}pyrimidin-2-amine] | 27.8 | 116
Nc1nccc(-c2c(-c3ccc(F)cc3)ncn2C2CCN(Cc3ccon3)CC2)n1 [Example 4, 4-{4-(4-Fluorophenyl)-1-[1-(isoxazol-3-ylmethyl)piperidin-4-yl]-1H-imidazol-5-yl}pyrimidin-2-amine] | < 4.17 | 18.9
CNc1nccc(-c2c(-c3ccc(F)cc3)ncn2C2CCN(Cc3ccon3)CC2)n1 [Example 5, 4-{4-(4-Fluorophenyl)-1-[1-(isoxazol-3-ylmethyl)piperidin-4-yl]-1H-imidazol-5-yl}-N-methylpyrimidin-2-amine] | 6.86 | 32.3
Fc1ccc(-c2ncn(C3CCN(Cc4ccon4)CC3)c2-c2ccncn2)cc1 [Example 6, 4-{4-(4-Fluorophenyl)-1-[1-(isoxazol-3-ylmethyl)piperidin-4-yl]-1H-imidazol-5-yl}pyrimidine, hydrochloride salt] | 24 | 126
Nc1nccc(-c2c(-c3ccc(F)cc3)ncn2C2CCN(Cc3ccon3)C2)n1 (stereo not shown) [Example 7, 4-{4-(4-Fluorophenyl)-1-[1-(isoxazol-3-ylmethyl)pyrrolidin-3-yl]-1H-imidazol-5-yl}pyrimidin-2-amine] | 67.8 | 193
Fc1ccc(-c2ncn(C3CCN(Cc4ccon4)C3)c2-c2ccncn2)cc1 (stereo not shown) [Example 8, 4-{4-(4-Fluorophenyl)-1-[1-(isoxazol-3-ylmethyl)pyrrolidin-3-yl]-1H-imidazol-5-yl}pyrimidine] | 211 | 617
c1ccc(-c2ncn(C3CCN(Cc4ncccn4)CC3)c2-c2ccncn2)cc1 [Example 11, 2-{[4-(4-Phenyl-5-pyrimidin-4-yl-1H-imidazol-1-yl)piperidin-1-yl]methyl}pyrimidine] | 790 | > 3660
CNc1nccc(-c2c(-c3ccccc3)ncn2C2CCN(Cc3ncccn3)CC2)n1 [Example 12, N-Methyl-4-{4-phenyl-1-[1-(pyrimidin-2-ylmethyl)piperidin-4-yl]-1H-imidazol-5-yl}pyrimidin-2-amine] | 191 | 660
Nc1nccc(-c2c(-c3ccccc3)ncn2C2CCN(Cc3ccon3)CC2)n1 [Example 13, 4-{1-[1-(Isoxazol-3-ylmethyl)piperidin-4-yl]-4-phenyl-1H-imidazol-5-yl}pyrimidin-2-amine, hydrochloride salt] | 8.22 | 40.9
Cc1nc(-c2ccc(F)cc2)c(-c2ccncn2)n1C1CCN(Cc2ccon2)CC1 [Example 14, 4-{4-(4-Fluorophenyl)-1-[1-(isoxazol-3-ylmethyl)piperidin-4-yl]-2-methyl-1H-imidazol-5-yl}pyrimidine] | 140 | 829
CNc1nccc(-c2c(-c3ccccc3)ncn2C2CCN(Cc3ccon3)CC2)n1 [Example 15, 4-{1-[1-(isoxazol-3-ylmethyl)piperidin-4-yl]-4-phenyl-1H-imidazol-5-yl}-N-methylpyrimidin-2-amine, hydrochloride salt] | 18.6 | 76.1
c1ccc(-c2ncn(C3CCN(Cc4ccon4)CC3)c2-c2ccncn2)cc1 [Example 16, 4-{1-[1-(isoxazol-3-ylmethyl)piperidin-4-yl]-4-phenyl-1H-imidazol-5-yl}pyrimidine] | 42.8 | 327
Cc1nc2ccccc2nc1CN1CCC(n2cnc(-c3ccc(F)cc3)c2-c2ccnc(N)n2)CC1 [Example 17, 4-[4-(4-fIuorophenyl)-1-{1-[(3-methylquinoxalin-2-yl)methyl]piperidin-4-yl}-1H-imidazol-5-yl]pyrimidin-2-amine, trifluoroacetate salt] | 32.1 | 144
Nc1nccc(-c2c(-c3ccc(F)cc3)ncn2C2CCN(Cc3ccc(C(F)(F)F)nc3)CC2)n1 [Example 18, 4-[4-(4-fluorophenyl)-1-(1-{[6-(trifluoromethyl)pyridin-3-yl]methyl}piperidin-4-yl)-1H-imidazol-5-yl]pyrimidin-2-amine, trifluoroacetate salt] | 80.7 | 394
Nc1nccc(-c2c(-c3ccc(F)cc3)ncn2C2CCN(Cc3cncs3)CC2)n1 [Example 19, 4-{4-(4-fluorophenyl)-1-[1-(1,3-thiazol-5-ylmethyl)piperidin-4-yl]-1H-imidazol-5-yl}pyrimidin-2-amine, trifluoroacetate salt] | 26.8 | 99.9
Cn1nccc1CN1CCC(n2cnc(-c3ccc(F)cc3)c2-c2ccnc(N)n2)CC1 [Example 20, 4-[4-(4-fluorophenyl)-1-{1-[(1-methyl-1H-pyrazol-5-yl)methyl]piperidin-4-yl}-1H-imidazol-5-yl]pyrimidin-2-amine, trifluoroacetate salt] | 42.8 | 244
Cc1cc(CN2CCC(n3cnc(-c4ccc(F)cc4)c3-c3ccnc(N)n3)CC2)ccn1 [Example 21, 4-[4-(4-fluorophenyl)-1-{1-[(2-methylpyridin-4-yl)methyl]piperidin-4-yl}-1H-imidazol-5-yl]pyrimidin-2-amine, trifluoroacetate salt] | 13 | 59.8
COc1ccc(CN2CCC(n3cnc(-c4ccc(F)cc4)c3-c3ccnc(N)n3)CC2)cn1 [Example 22, 4-[4-(4-fluorophenyl)-1-{1-[(6-methoxypyridin-3-yl)methyl]piperidin-4-yl}-1H-imidazol-5-yl]pyrimidin-2-amine, trifluoroacetate salt] | 83.6 | 482
Nc1nccc(-c2c(-c3ccc(F)cc3)ncn2C2CCN(Cc3ccnnc3)CC2)n1 [Example 23, 4-{4-(4-fluorophenyl)-1-[1-(pyridazin-4-ylmethyl)piperidin-4-yl]-1H-imidazol-5-yl}pyrimidin-2-amine, trifluoroacetate salt] | 8.51 | 34.8
CCc1csc(CN2CCC(n3cnc(-c4ccc(F)cc4)c3-c3ccnc(N)n3)CC2)n1 [Example 24, 4-[1-{1-[(4-ethyl-1,3-thiazol-2-yl)methyl]piperidin-4-yl}-4-(4-fluorophenyl)-1H-imidazol-5-yl]pyrimidin-2-amine, trifluoroacetate salt] | 83.7 | 382
COc1cc(CN2CCC(n3cnc(-c4ccc(F)cc4)c3-c3ccnc(N)n3)CC2)ccn1 [Example 25, 4-[4-(4-fluorophenyl)-1-{1-[(2-methoxypyridin-4-yl)methyl]piperidin-4-yl}-1H-imidazol-5-yl]pyrimidin-2-amine, trifluoroacetate salt] | 84.3 | 393
COc1ncccc1CN1CCC(n2cnc(-c3ccc(F)cc3)c2-c2ccnc(N)n2)CC1 [Example 26, 4-[4-(4-fluorophenyl)-1-{1-[(2-methoxypyridin-3-yl)methyl]piperidin-4-yl}-1H-imidazol-5-yl]pyrimidin-2-amine, trifluoroacetate salt] | 51.9 | 238
Cc1ncc(CN2CCC(n3cnc(-c4ccc(F)cc4)c3-c3ccnc(N)n3)CC2)cn1 [Example 27, 4-[4-(4-fluorophenyl)-1-{1-[(2-methylpyrimidin-5-yl)methyl]piperidin-4-yl}-1H-imidazol-5-yl]pyrimidin-2-amine, trifluoroacetate salt] | 17.6 | 83.2
Nc1nccc(-c2c(-c3ccc(F)cc3)ncn2C2CCN(Cc3ccnc(C4CC4)n3)CC2)n1 [Example 28, 4-[1-{1-[(2-cyclopropylpyrimidin-4-yl)methyl]piperidin-4-yl}-4-(4-fluorophenyl)-1H-imidazol-5-yl]pyrimidin-2-amine, trifluoroacetate salt] | 54.9 | 351
Cc1cc(CN2CCC(n3cnc(-c4ccc(F)cc4)c3-c3ccncn3)CC2)no1 [Example 29, 4-[4-(4-fluorophenyl)-1-{1-[(5-methylisoxazol-3-yl)methyl]piperidin-4-yl}-1H-imidazol-5-yl]pyrimidine] | 38.8 | 268
